In ChEMBL document CHEMBL4673379 (ACS Med Chem Lett, 2021):

Assays:
[1] = tested on: Vero; test: Cytotoxicity against African green monkey Vero cells assessed as reduction in cell growth by coulter counter analysis; format: cell-based; settings: chlorocebus sabaeus
[2] = tested on: SARS-CoV-2; test: Antiviral activity against SARS-CoV-2 UC-1075 infected in African green monkey Vero cells assessed as reduction in virus plaque formation measured on day 5 post-viral infection by microscopic analysis; format: functional, organism-based; settings: Severe acute respiratory syndrome coronavirus 2, UC-1075, Vero, 120 h
[3] = tested on: SARS-CoV-2; test: Antiviral activity against SARS-CoV-2 UC-1074 infected in African green monkey Vero cells assessed as reduction in virus plaque formation measured on day 5 post-viral infection by microscopic analysis; format: functional, organism-based; settings: Severe acute respiratory syndrome coronavirus 2, UC-1074, Vero, 120 h
[4] = Cytotoxicity against African green monkey Vero cells assessed as alteration in cell morphology by microscopic analysis; format: cell-based; settings: chlorocebus sabaeus
[5] = tested on: Human betaherpesvirus 5; test: Antiviral activity against Human cytomegalovirus AD169 infected in human HEL cells assessed as reduction in virus plaque formation measured on day 6 to 7 post-viral infection; format: functional, cell-based; settings: Human betaherpesvirus 5, AD169, HEL, 144 h
[6] = tested on: Human betaherpesvirus 5; test: Antiviral activity against Human cytomegalovirus Davis infected in human HEL cells assessed as reduction in virus plaque formation measured on 6 to 7 post-viral infection; format: functional, cell-based; settings: Human betaherpesvirus 5, Davis
[7] = Cytotoxicity against human HEL cells assessed as alteration in cell morphology incubated for 3 days by microscopic analysis; format: cell-based; settings: time 3 day
[8] = tested on: Human alphaherpesvirus 3; test: Antiviral activity against thymidine kinase deficient Varicella zoster virus 07-1 infected in human HEL cells assessed as reduction in virus plaque formation measured on day 5 post-viral infection; format: functional, organism-based; settings: Human alphaherpesvirus 3, 07-1, HEL, 120 h
[9] = tested on: Human alphaherpesvirus 3; test: Antiviral activity against thymidine kinase positive Varicella zoster virus OKA infected in human HEL cells assessed as reduction in virus plaque formation measured on day 5 post-viral infection; format: functional, organism-based; settings: Human alphaherpesvirus 3, OKA, 120 h
[10] = Selectivity index, ratio of CC50 for human HEL cells to EC50 for antiviral activity against thymidine kinase deficient Varicella zoster virus 07-1 infected in human HEL cells; format: toxicity, cell-based; settings: read-out: Ratio CC50/EC50
[11] = Selectivity index, ratio of CC50 for human HEL cells to EC50 for antiviral activity against thymidine kinase positive Varicella zoster virus OKA infected in human HEL cells; format: toxicity, cell-based; settings: read-out: Ratio CC50/EC50
[12] = tested on: HEL; test: Cytotoxicity against human HEL cells assessed as reduce in cell growth incubated for 3 days by coulter counter analysis; format: cell-based; settings: 72 h, time 3 day
[13] = Selectivity index, ratio of CC50 for African green monkey Vero cells to EC50 for antiviral activity against SARS-CoV-2 UC-1075 infected in African green monkey Vero cells; format: toxicity; settings: read-out: Ratio CC50/EC50
[14] = tested on: SARS-CoV-2; test: Antiviral activity against SARS-CoV-2 infected in African green monkey Vero cells assessed as reduction in virus plaque formation measured on day 5 post-viral infection by microscopic analysis relative to remdesivir; format: functional, Severe acute respiratory syndrome coronavirus 2; settings: time 5 day
[15] = tested on: Zika virus; test: Antiviral activity against Zika virus infected in human RPE cells assessed as inhibition of virus-induced cytopathic effect measured at 48 hrs post-viral infection by CellTiter Glo assay; format: functional, organism-based; settings: HRPE
[16] = tested on: Human immunodeficiency virus 1; test: Antiviral activity against HIV-1 infected in HEK293T cells assessed as inhibition of viral replication treated with compound 2 hrs prior to viral infection and measured after 24 hrs by flow cytometry; format: functional, organism-based; settings: Human immunodeficiency virus 1, HEK-293T
[17] = tested on: Enterovirus C; test: Antiviral activity against Polio virus Mahoney infected in human HeLa cells assessed as inhibition of viral replication incubated for 2 days by luminescence analysis; format: functional, organism-based; settings: 48 h
[18] = tested on: Influenza A virus; test: Antiviral activity against Influenza A virus (A/Puerto Rico/8/34(H1N1)) expressing NS116-GFP infected in human RPE cells assessed as inhibition of viral replication measured after 24 hrs by luminescence based assay; format: functional, organism-based; settings: A/Puerto Rico/8/1934(H1N1), HRPE
[19] = tested on: Hepatitis C virus; test: Antiviral activity against Hepatitis C virus assessed as inhibition of viral replication incubated for 3 days by Renilla luciferase based assay; format: functional, organism-based, Hepacivirus hominis; settings: 72 h
[20] = tested on: rhinovirus A1B; test: Antiviral activity against Human rhinovirus 1B infected in human HeLa cells assessed as inhibition of virus-induced cytopathicity measured after 2 days by SRB method; format: functional, organism-based; settings: Rhinovirus A, 48 h
[21] = tested on: SARS-CoV-2; test: Antiviral activity against SARS-CoV-2 infected in African green monkey Vero E6 cells assessed as reduction in viral RNA copy number incubated for 24 hrs by real time RT-PCR analysis; format: functional, organism-based; settings: Severe acute respiratory syndrome coronavirus 2, Vero C1008, 24 h
[22] = tested on: Middle East respiratory syndrome-related coronavirus; test: Antiviral activity against MERS-CoV Hu/Jordan-N3/2012 infected in African green monkey Vero E6 cells assessed as inhibition of viral replication treated for 1 hr prior to viral infection and measured after 48 hrs by ELISA; format: functional, organism-based; settings: Hu/Jordan-N3/2012, Vero C1008

Compound	CC50 [1]	EC50 [2]	EC50 [3]	MCC [4]	EC50 [5]	EC50 [6]	MCC at 72 h [7]	EC50 [8]	EC50 [9]	CC50 [12]	also measured
CCC(CC)COC(=O)[C@H](C)N[P@](=O)(OC[C@H]1O[C@@](C#N)(c2ccc3c(N)ncnn23)[C@H](O)[C@@H]1O)Oc1ccccc1	> 40000 nM	1520 nM	5800 nM	> 40 µM							
Nc1ccn(C[C@@H](CO)OCP(=O)(O)O)c(=O)n1 [CIDOFOVIR]					650 nM	340 nM	300 µM				
CO[C@]1(COP(=O)(N[C@@H](C)C(=O)OCc2ccccc2)Oc2ccccc2)O[C@@H](n2ccc(N)nc2=O)C(F)(F)[C@@H]1O (stereo not given in full)	≥ 93600 nM	≥ 55100 nM	> 100000 nM	≥ 100 µM	> 100000 nM	> 100000 nM	> 100 µM	> 100000 nM	> 100000 nM		
O=c1[nH]c(=O)n([C@H]2C[C@H](O)[C@@H](CO)O2)cc1/C=C/Br [BRIVUDINE]							> 300 µM	6040 nM	36 nM	> 300000 nM	selectivity ratio [10]: > 49; selectivity ratio [11]: > 8330
CO[C@]1(CO)O[C@@H](n2ccc(=O)[nH]c2=O)C(F)(F)[C@@H]1O					> 100000 nM	> 100000 nM	> 100 µM	> 100000 nM	> 100000 nM		
Nc1nc2c(ncn2COCCO)c(=O)[nH]1 [ACYCLOVIR]							> 440 µM			424000 nM	
CCN(CCO)CCCC(C)Nc1ccnc2cc(Cl)ccc12 (stereo not given) [HYDROXYCHLOROQUINE]	36900 nM	1740 nM	8100 nM	100 µM							
O=c1ccn([C@@H]2O[C@](F)(CO)[C@@H](O)C2(F)F)c(=O)[nH]1					> 100000 nM	> 100000 nM	> 100 µM	> 100000 nM	> 100000 nM		
C[C@H](NP(=O)(OC[C@H]1O[C@@H](n2ccc(N)nc2=O)C(F)(F)[C@@H]1O)Oc1ccccc1)C(=O)OCc1ccccc1 (stereo not given in full) [FOSGEMCITABINE PALABENAMIDE]	20 nM	> 12.8 nM	> 32 nM	0.048 µM	66 nM	32 nM	> 100 µM	89 nM	74 nM	340 nM	selectivity ratio [10]: 3; selectivity ratio [11]: 4
CO[C@]1(CO)O[C@@H](n2ccc(N)nc2=O)C(F)(F)[C@@H]1O	> 100000 nM	≥ 86200 nM		> 100 µM	> 100000 nM	> 100000 nM	> 100 µM	> 100000 nM	> 100000 nM		
Nc1ccn([C@@H]2O[C@](F)(CO)[C@@H](O)C2(F)F)c(=O)n1	260 nM	96 nM	360 nM	0.16 µM	815 nM	930 nM	20 µM	166 nM	42 nM	110 nM	selectivity ratio [10]: < 1; selectivity ratio [13]: 2; selectivity ratio [11]: 2; Ratio [14]: 20
Nc1ccn([C@@H]2O[C@H](CO)[C@@H](O)C2(F)F)c(=O)n1 [GEMCITABINE]	4.3 nM	> 1.6 nM	> 3.2 nM	0.008 µM	74 nM	53 nM	20 µM	54 nM	28 nM	3.6 nM	EC50 [15]: 10 nM; EC50 [16]: 16.3 nM; IC50 [17]: 300 nM; EC50 [18]: 68 nM; EC50 [19]: 12 nM; EC50 [20]: 810 nM; EC50 [21]: 1240 nM; EC50 [22]: 1220 nM
C[C@H](NP(=O)(OC[C@@]1(F)O[C@@H](n2ccc(N)nc2=O)C(F)(F)[C@@H]1O)Oc1ccccc1)C(=O)OCc1ccccc1 (stereo not given in full)	1440 nM	730 nM	≥ 2400 nM	4 µM	15500 nM	4000 nM	> 100 µM	2840 nM	2320 nM	84400 nM	selectivity ratio [10]: 29; selectivity ratio [13]: < 2; selectivity ratio [11]: 36; Ratio [14]: 10
Nc1nc(O)c2ncn(COC(CO)CO)c2n1 [GANCICLOVIR]							350 µM				
